# Data from paper PMC8308830, “Single-Agent and Fixed-Dose Combination HIV-1 Protease Inhibitor Drugs in Fission Yeast (Schizosaccharomyces pombe)” (Pathogens, 2021).
# “Also recorded” adds a separate entry of the source.
# Columns and labels:
# HIV = conditions: human cells, antiviral activity; per-drug references in Table 2; read-out: EC50 in Human Cell; cited from earlier work
# HIV-1 PR [1] = biological target: T1, HIV-1 PR (Human immunodeficiency virus type 1 group M subtype B, UniProt P12497); test: cell-based; conditions: for decrease of EC50 of formulated drug in comparison with pure compound: fission yeast RE294, formulated drug pill vs pure compound; for EC50: PR-on RE294 cells, growth (OD650) at 72 h post-gene induction relative to PR-off cells
# Experimental: The goal of this experiment was to determine the potency of each PI drug in fission yeast by the determination of EC50. […] Briefly, both HIV-1 PR-suppressing (PR-off) and PR-producing (PR-on) RE294 cells were prepared as described above. The PR-producing cells were added with a PI drug in the final concentration as indicated. Final cellular growth was measured at 72 h post-gene induction.
# (A) Pure compound of PI drugs. (B) Formulated PI drug pills. HIV-1 PR gene expression was induced in RE294 cells, as described in Figure 2. […] Cellular growth was measured at 72 h post-gene induction by optical density of 650 nm using a spectrophotometer. EC50 curves were generated by using Prism 8 software showing averages with standard error bars. The measurements were repeated with three different experiments.
# Briefly, both HIV-1 PR-suppressing (PR-off) or PR-producing (PR-on) RE294 cells were prepared as described above as control and for testing. The PR-producing cells were added with a PI drug in the final concentration as shown. Final cellular growth was measured at 72 h post-gene induction by optical density of 650 nm using a spectrophotometer.
# HIV-1 PR [2] = biological target: T1, HIV-1 PR; conditions: 150 μM drug; G31 cells; 20 h post-gene induction
# HIV-1 PR [3] = biological target: T1, HIV-1 PR; test: Fission yeast colony formation assay, wild-type HIV-1 PR (RE294 strain); format: cell-based; set-up: HIV-1 PR is a dimeric aspartyl protease that consists of two identical subunits with 99 amino acids; expressed in transfected cells; host or cells: Schizosaccharomyces pombe strain RE294; conditions: 150 μM drug; PR-on RE294 cells; 4–5 days at 30 °C; pure chemical forms and formulated drug pills
# Experimental: The effect of the above-mentioned FDA-approved PI drugs on fission yeast colony formation was tested in the presence and absence of HIV-1 PR. Specifically, a fission yeast RE294 strain, which carries a single and integrated copy of HIV-1 PR gene in the yeast chromosome, was used in this experiment. One thousand active growing and log-phase RE294 cells were evenly spread and cultured on the six-well agar wells containing the minimal and selective PMG medium in presence of 20 µM of thiamine (PR-off) or absence of thiamine (PR-on) with incubation at 30 °C for 4–5 days. […] To test the effect of a PI drug on the colony formation, 150 μM of each drug was added to the respective agar well in the presence of HIV-1 PR. Since all those drugs were dissolved in dimethyl sulfoxide (DMSO), to test the potential DMSO effect on the yeast colony formation, DMSO in the final concentration of 1% was added to the PR-on well as a mock control (Figure 2A). […]
# A modified fission yeast colony-formation assay was used to investigate the effect of the PR gene expression on fission yeast cell proliferation from previously described protocol. […] The inhibitory effect of each FDA PI drug on yeast colony formation was evaluated 4–5 days after plating by comparing the growth of the colonies of the drug-treated wells to that of the mock DMSO controls.
# HIV-1 PR [4] = biological target: T1, HIV-1 PR; format: cell-based; set-up: HIV-1 PR is a dimeric aspartyl protease that consists of two identical subunits with 99 amino acids; expressed in transfected cells; host or cells: Schizosaccharomyces pombe strain RE294; conditions: 150 μM drug; PR-on RE294 cells; OD650 over 72 h; formulated single-agent and combination drugs
# [5] = EC50 in Fission Yeast /Drug Formulation, compounds in drug pill forms
# [6] = EC50 in Fission Yeast /Pure Compound, pure compound
Structure (SMILES),EC50 (HIV) [nM],decrease of EC50 of formulated drug in comparison with pure compound (HIV-1 PR [1]) [%],EC50 (HIV-1 PR [1]; [6]) [nM],other results
"CC(C)(C)NC(=O)[C@@H]1CN(Cc2cccnc2)CCN1C[C@@H](O)C[C@@H](Cc1ccccc1)C(=O)N[C@H]1c2ccccc2C[C@H]1O [IDV, Indinavir]",5 to 30,,,
"CC(C)c1nc(CN(C)C(=O)N[C@H](C(=O)N[C@@H](Cc2ccccc2)C[C@H](O)[C@H](Cc2ccccc2)NC(=O)OCc2cncs2)C(C)C)cs1 [RTV, Ritonavir]",40 to 100,38.9,,
"CC(C)(C)NC(=O)[C@@H]1C[C@@H]2CCCC[C@@H]2CN1C[C@@H](O)[C@H](Cc1ccccc1)NC(=O)[C@H](CC(N)=O)NC(=O)c1ccc2ccccc2n1 [SQV, Saquinavir]",5 to 25,,,
"CC(C)CN(C[C@@H](OP(=O)(O)O)[C@H](Cc1ccccc1)NC(=O)O[C@H]1CCOC1)S(=O)(=O)c1ccc(N)cc1 [FPV, Fosamprenavir]",,,,"EC50 (HIV-1 PR [1]; [5]): > 150000 nM; inhibitory activity against the HIV-1 PR in fission yeast (HIV-1 PR [1]; wild-type PR, fission yeast): no inhibitory activity; also recorded: did not show any inhibitory effect; inhibition of HIV-1 PR proteolytic cleavage of GFP-MA↓CA-Vpr (Vpr pattern vs GFP pattern) (HIV-1 PR [2]): no suppression; suppression of the inhibitory effect of HIV-1 PR on colony formation (HIV-1 PR [3]): did not suppress; suppression of HIV-1 PR-induced growth arrest, formulated drug pills (HIV-1 PR [4]): did not suppress"
"Cc1cccc(C)c1OCC(=O)N[C@@H](Cc1ccccc1)[C@@H](O)C[C@H](Cc1ccccc1)NC(=O)[C@H](C(C)C)N1CCCNC1=O [LPV, Lopinavir]",4 to 11,,,
"Cc1c(O)cccc1C(=O)N[C@@H](CSc1ccccc1)[C@H](O)CN1C[C@H]2CCCC[C@H]2C[C@H]1C(=O)NC(C)(C)C [NFV, Nelfinavir]",3 to 40,,9700 ± 340,
"CCC[C@@]1(CCc2ccccc2)CC(O)=C([C@H](CC)c2cccc(NS(=O)(=O)c3ccc(C(F)(F)F)cn3)c2)C(=O)O1 [TPV, Tipranavir]",30 to 70,,7060 ± 320,
"COC(=O)N[C@H](C(=O)N[C@@H](Cc1ccccc1)[C@@H](O)CN(Cc1ccc(-c2ccccn2)cc1)NC(=O)[C@@H](NC(=O)OC)C(C)(C)C)C(C)(C)C [ATV, Atazanavir]",2 to 5,22.5,21080 ± 70,EC50 (HIV-1 PR [1]; [5]): 16300 ± 950 nM
"CC(C)CN(C[C@@H](O)[C@H](Cc1ccccc1)NC(=O)O[C@H]1CCOC1)S(=O)(=O)c1ccc(N)cc1 [APV, Amprenavir]",15 to 60,,55400 ± 3180,
"CC(C)CN(C[C@@H](O)[C@H](Cc1ccccc1)NC(=O)O[C@H]1CO[C@H]2OCC[C@H]21)S(=O)(=O)c1ccc(N)cc1 [DRV, Darunavir]",1 to 10,28.5,,
